Laboratory results from patent US20230143604A1, “QW DOSING OF GIP RECEPTOR AGONIST PEPTIDE COMPOUNDS AND USES THEREOF” (TAKEDA PHARMACEUTICAL COMPANY LIMITED, priority 2020, published 2023).
Starred links: 1 amine or outer side, 2 acyl side, 3 side chain; linkers in the order of their positions; H or OH if unused. Non-standard residues stand in square brackets, D forms with d. Residues, ends and D or L forms follow the SMILES beside them. Groups on a side chain read outwards from the residue. *: point of attachment. C18 diacid = O=C(O)CCCCCCCCCCCCCCCCC(=O)*; C17 diacid = O=C(O)CCCCCCCCCCCCCCCC(=O)*; γGlu = O=C(O)[C@H](CCC(=O)[*:2])N[*:1]; NMeY = CN[C@@H](Cc1ccc(O)cc1)C(=O)O; AEEA = NCCOCCOCC(=O)O; Aib = CC(C)(N)C(=O)O

How the values were obtained:
[1] = physchem
Procedure, shortened: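 Solubility at pH 7.4 determined by stepwise addition of 200 mM phosphate buffer in 100 μL increments to 3 mg peptide, mixing briefly each time, until no insoluble material remained, then measured by liquid chromatography.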

[2] = Human plasma protein binding (PPB); assay type: in vitro ADME; details: for fraction unbound / fraction unbound at 30 min, 1000 nmol/L: both sexes, pH 7.4, human plasma, 1000 nmol/L peptide, ultracentrifugation, read-out: Human PPB (FUplasma); for free unbound peptide in human plasma (in words): judged for once per week (QW) dosing
Experimental: Stock solutions: (1000 μM) of the peptides are prepared in DMSO.
Human plasma (mixed gender; containing K2-EDTA as anti-coagulant; pre-adjusted to pH 7.4—NB alternative species may be used) is spiked individually with each test peptide (1000 nmol/L), sampled for analysis and then incubated (n=4) at 37° C. in a water bath for 30 minutes. Following the incubation period, the plasma is sampled for analysis, then transferred to ultracentrifugation tubes and centrifuged (n=3) at […] and 4° C. for 3 hours, after which the supernatant is sampled for analysis. An additional aliquot of the supernatant is taken at the end of the centrifugation period to determine the total protein concentration. An aliquot of the incubated plasma will be stored at 4° C. for 3 hours and then sampled for analysis. At the point of sampling, all samples are matrix-matched, treated with ice-cold acetonitrile/methanol (4:1 (vfv)) containing internal standard, centrifuged al 2000 g and 4° C. for 10 minutes and stored prior to LC-MS/MS analysis. An appropriate positive control compound control will be incubated and centrifuged in parallel; control plasma is also centrifuged to generate samples for matrix-matching. Fraction unbound in plasma (Fuplasma) values is determined by comparison of the analyte response in plasma to the analyte response in the supernatant, determined via peak area response ratios.
The samples are analyzed by LC-MS/MS using a 6500 (or equivalent) triple quadrupole mass spectrometer (AB Sciex) coupled to an appropriate Liquid Chromatography (LC) system. Protein binding and stability values are determined via peak area ratios using multiple reaction monitoring (MRM) parameters following compound optimisation. Multiple reaction monitoring (MRM) is a highly sensitive method of targeted mass spectrometry (MS) that can be used to selectively detect and quantify peptides based on the screening of specified precursor peptide-to-fragment ion transitions.

[3] = Dog plasma protein binding (PPB); assay type: in vitro ADME; details: pH 7.4; fraction unbound; dog serum; read-out: Dog PPB (FUplasma)
From the text: Dog PPB values presented below are obtained essentially as described for Human PPB samples, with the difference being that dog serum is used instead of human serum. Table 10 is provided with the values of (Fu,plasma) as fraction unbound expressed as a percentage compared to the percent bound. i.e. if the value is 0.0123, then the fraction unbound is […], which is 1.23% of the peptide is unbound and 98.77% is bound in plasma. Methods and analysis for performing the dog PPB protocol and results are the same as noted herein as for the Human PPB protocol and analysis.

[4] = pH 7.4, aqueous buffer, pH 7.4 Phosphate Buffer - Solubility, 200 mM Phosphate buffer pH 7.4
[5] = pH 7.4, solubility in phosphate buffer at pH 7.4, 200 mM phosphate buffer pH 7.4

| SMILES | solubility ([1]; pH 7.4, aqueous buffer) | fraction unbound [2] | free unbound peptide in human plasma (in words) [2] | fraction unbound [3] | solubility [1, 4] | solubility [1, 5] | fraction unbound at 30 min, 1000 nmol/L [2] | fraction unbound at 30 min, 1000 nmol/L [3] | solubility ([1]; pH 7.4) |
| --- | --- | --- | --- | --- | --- | --- | --- | --- | --- |
| CC[C@H](C)[C@H](NC(=O)[C@H](CO)NC(=O)[C@H](Cc1ccc(O)cc1)NC(=O)[C@H](CC(=O)O)NC(=O)[C@H](CO)NC(=O)[C@@H](NC(=O)[C@H](Cc1ccccc1)NC(=O)[C@@H](NC(=O)CNC(=O)[C@H](CCC(=O)O)NC(=O)C(C)(C)NC(=O)[C@H](Cc1ccc(O)cc1)NC)[C@@H](C)O)[C@@H](C)CC)C(=O)N[C@@H](C)C(=O)N[C@@H](CC(C)C)C(=O)N[C@@H](CC(=O)O)C(=O)N[C@@H](CCCNC(=N)N)C(=O)NC(C)(C)C(=O)N[C@@H](C)C(=O)N[C@@H](CCC(N)=O)C(=O)NC(C)(C)C(=O)N[C@@H](CCCCNC(=O)COCCOCCNC(=O)COCCOCCNC(=O)CC[C@H](NC(=O)CC[C@H](NC(=O)CCCCCCCCCCCCCCCC(=O)O)C(=O)O)C(=O)O)C(=O)N[C@@H](Cc1ccccc1)C(=O)N[C@H](C(=O)N[C@@H](CC(N)=O)C(=O)N[C@@H](Cc1c[nH]c2ccccc12)C(=O)N[C@@H](CC(C)C)C(=O)N[C@@H](CC(C)C)C(=O)N[C@@H](C)C(=O)N[C@@H](CCC(N)=O)C(=O)N[C@@H](CCCNC(=N)N)C(N)=O)C(C)C [Compound 8] (H-[NMeY][Aib]EGTFISDYSIALDR[Aib]AQ[Aib]K([AEEA-AEEA-γGlu-γGlu-C17 diacid])FVNWLLAQR-NH2) | ≥ 15 mg/mL | 0.0009 | optimum free unbound peptide | 0.0016 | – | – | – | – | – |
| CC[C@H](C)[C@H](NC(=O)[C@H](CO)NC(=O)[C@H](Cc1ccc(O)cc1)NC(=O)[C@H](CC(=O)O)NC(=O)[C@H](CO)NC(=O)[C@@H](NC(=O)[C@H](Cc1ccccc1)NC(=O)[C@@H](NC(=O)CNC(=O)[C@H](CCC(=O)O)NC(=O)C(C)(C)NC(=O)[C@H](Cc1ccc(O)cc1)NC)[C@@H](C)O)[C@@H](C)CC)C(=O)N[C@@H](C)C(=O)N[C@@H](CC(C)C)C(=O)N[C@@H](CC(=O)O)C(=O)N[C@@H](CCCNC(=N)N)C(=O)NC(C)(C)C(=O)N[C@@H](CCCCNC(=O)COCCOCCNC(=O)COCCOCCNC(=O)CC[C@H](NC(=O)CC[C@H](NC(=O)CCCCCCCCCCCCCCCC(=O)O)C(=O)O)C(=O)O)C(=O)N[C@@H](CCC(N)=O)C(=O)NC(C)(C)C(=O)N[C@@H](CC(N)=O)C(=O)N[C@@H](Cc1ccccc1)C(=O)N[C@H](C(=O)N[C@@H](CC(N)=O)C(=O)N[C@@H](Cc1c[nH]c2ccccc12)C(=O)N[C@@H](CC(C)C)C(=O)N[C@@H](CC(C)C)C(=O)N[C@@H](C)C(=O)N[C@@H](CCC(N)=O)C(=O)N[C@@H](CO)C(=O)N1CCC[C@H]1C(=O)N[C@@H](CO)C(=O)N[C@@H](CO)C(=O)NCC(=O)N[C@@H](C)C(=O)N1CCC[C@H]1C(=O)N1CCC[C@H]1C(=O)N1CCC[C@H]1C(=O)N[C@@H](CO)C(N)=O)C(C)C [Compound 11] (H-[NMeY][Aib]EGTFISDYSIALDR[Aib]K([AEEA-AEEA-γGlu-γGlu-C17 diacid])Q[Aib]NFVNWLLAQSPSSGAPPPS-NH2) | – | – | optimum free unbound peptide | – | ≥ 30 mg/mL | ≥ 15 mg/mL | 0.0038 | ≤ 0.0024 | – |
| CC[C@H](C)[C@H](NC(=O)[C@H](Cc1ccccc1)NC(=O)[C@@H](NC(=O)CNC(=O)[C@H](CCC(=O)O)NC(=O)C(C)(C)NC(=O)[C@H](Cc1ccc(O)cc1)NC)[C@@H](C)O)C(=O)N[C@@H](CO)C(=O)N[C@@H](CC(=O)O)C(=O)N[C@@H](Cc1ccc(O)cc1)C(=O)N[C@@H](CO)C(=O)N[C@H](C(=O)NC(C)(C)C(=O)N[C@@H](CC(C)C)C(=O)N[C@@H](CC(=O)O)C(=O)N[C@@H](CCCNC(=N)N)C(=O)NC(C)(C)C(=O)N[C@@H](C)C(=O)N[C@@H](CCC(N)=O)C(=O)NC(C)(C)C(=O)N[C@@H](CCCCNC(=O)COCCOCCNC(=O)COCCOCCNC(=O)CC[C@H](NC(=O)CC[C@H](NC(=O)CCCCCCCCCCCCCCCC(=O)O)C(=O)O)C(=O)O)C(=O)N[C@@H](Cc1ccccc1)C(=O)N[C@H](C(=O)N[C@@H](CC(N)=O)C(=O)N[C@@H](Cc1c[nH]c2ccccc12)C(=O)N[C@@H](CC(C)C)C(=O)N[C@@H](CC(C)C)C(=O)N[C@@H](C)C(=O)N[C@@H](CCC(N)=O)C(=O)N[C@@H](CCCNC(=N)N)C(=O)N1CCC[C@H]1C(=O)N[C@@H](CO)C(=O)N[C@@H](CO)C(=O)NCC(=O)N[C@@H](C)C(=O)N1CCC[C@H]1C(=O)N1CCC[C@H]1C(=O)N1CCC[C@H]1C(=O)N[C@@H](CO)C(N)=O)C(C)C)[C@@H](C)CC [Compound 13] (H-[NMeY][Aib]EGTFISDYSI[Aib]LDR[Aib]AQ[Aib]K([AEEA-AEEA-γGlu-γGlu-C17 diacid])FVNWLLAQRPSSGAPPPS-NH2) | – | – | – | – | ≥ 30 mg/mL | ≥ 15 mg/mL | < 0.002 | < 0.002 | – |
| CC[C@H](C)[C@H](NC(=O)[C@H](CO)NC(=O)[C@H](Cc1ccc(O)cc1)NC(=O)[C@H](CC(=O)O)NC(=O)[C@H](CO)NC(=O)[C@@H](NC(=O)[C@H](Cc1ccccc1)NC(=O)[C@@H](NC(=O)CNC(=O)[C@H](CCC(=O)O)NC(=O)C(C)(C)NC(=O)[C@H](Cc1ccc(O)cc1)NC)[C@@H](C)O)[C@@H](C)CC)C(=O)N[C@@H](C)C(=O)N[C@@H](CC(C)C)C(=O)N[C@@H](CC(=O)O)C(=O)N[C@@H](CCCNC(=N)N)C(=O)NC(C)(C)C(=O)N[C@@H](Cc1c[nH]cn1)C(=O)N[C@@H](CCC(N)=O)C(=O)NC(C)(C)C(=O)N[C@@H](CC(N)=O)C(=O)N[C@@H](Cc1ccccc1)C(=O)N[C@H](C(=O)N[C@@H](CC(N)=O)C(=O)N[C@@H](Cc1c[nH]c2ccccc12)C(=O)N[C@@H](CC(C)C)C(=O)N[C@@H](CC(C)C)C(=O)N[C@@H](C)C(=O)N[C@@H](CCCCNC(=O)COCCOCCNC(=O)COCCOCCNC(=O)CC[C@H](NC(=O)CC[C@H](NC(=O)CCCCCCCCCCCCCCCCC(=O)O)C(=O)O)C(=O)O)C(=O)N[C@@H](CCCNC(=N)N)C(N)=O)C(C)C [Compound 19] (H-[NMeY][Aib]EGTFISDYSIALDR[Aib]HQ[Aib]NFVNWLLAK([AEEA-AEEA-γGlu-γGlu-C18 diacid])R-NH2) | ≥ 30 mg/mL | 0.0011 | – | 0.0005 | – | – | – | – | ≥ 15 mg/mL |
| CC[C@H](C)[C@H](NC(=O)[C@H](CO)NC(=O)[C@H](Cc1ccc(O)cc1)NC(=O)[C@H](CC(=O)O)NC(=O)[C@H](CO)NC(=O)[C@@H](NC(=O)[C@H](Cc1ccccc1)NC(=O)[C@@H](NC(=O)CNC(=O)[C@H](CCC(=O)O)NC(=O)C(C)(C)NC(=O)[C@H](Cc1ccc(O)cc1)NC)[C@@H](C)O)[C@@H](C)CC)C(=O)N[C@@H](C)C(=O)N[C@@H](CC(C)C)C(=O)N[C@@H](CC(=O)O)C(=O)N[C@@H](CCCNC(=N)N)C(=O)NC(C)(C)C(=O)N[C@@H](C)C(=O)N[C@@H](CCC(N)=O)C(=O)NC(C)(C)C(=O)N[C@@H](CCCCNC(=O)COCCOCCNC(=O)COCCOCCNC(=O)CC[C@H](NC(=O)CC[C@H](NC(=O)CCCCCCCCCCCCCCCC(=O)O)C(=O)O)C(=O)O)C(=O)N[C@@H](Cc1ccccc1)C(=O)N[C@H](C(=O)N[C@@H](CC(N)=O)C(=O)N[C@@H](Cc1c[nH]c2ccccc12)C(=O)N[C@@H](CC(C)C)C(=O)N[C@@H](CC(C)C)C(=O)N[C@@H](C)C(=O)N[C@@H](CCC(N)=O)C(=O)N[C@@H](CCCNC(=N)N)C(=O)NCC(=O)O)C(C)C [Compound 36] (H-[NMeY][Aib]EGTFISDYSIALDR[Aib]AQ[Aib]K([AEEA-AEEA-γGlu-γGlu-C17 diacid])FVNWLLAQRG-OH) | ≥ 60 mg/mL | < 0.002 | – | 0.0034 | – | – | – | – | ≥ 15 mg/mL |
